Measured values published in patent US11590093B2, “Kit, composition, and combination therapy for fragile X syndrome” (priority 2018, dated 2023).
“Also recorded” adds a separate entry of the source.

Tests used:
Conditions in all cases: osmotic minipumps s.c. 15 days, sulindac 5 mg/kg, metoprolol 10 mg/kg, ibudilast 3 mg/kg, sertraline 1 mg/kg, quercetin 1 mg/kg (100 mg/kg in combination), cannabidiol 5 mg/kg
Fmr1 KO2 mice [1] = test: Open field (hyperactivity, locomotor activity); format: in vivo
Excerpt: (§1) The Fmr1 KO2 it is both, protein and mRNA null. In this study we used Fmr1 KO2 and wild-type (WT) littermates generated on a C57BL/6J background and repeatedly backcrossed onto a C57BL/6J background for more than eight generations.
(§2) There were four treatment groups per compound/compound combination in the study with 10 male mice used per treatment group (all at 8 weeks of age): Group 1: Fmr1 KO2 mice treated with vehicle (Fmr1 KO2-V), Group 2: wild-type littermate mice treated with vehicle (WT-V), Group 3: Fmr1 KO2 mice treated with compounds (Fmr1 KO—[name of drug(s)]) and Group 4: wild-type littermate mice treated with compounds (WT—[name of drug(s)]).
The open-field apparatus was used to test hyperactivity. The apparatus was a gray PVC-enclosed arena […] divided into a 10×10 cm grid. Mice were brought to the experimental room 5-20 min before testing. A mouse was placed into a corner square facing the corner and observed for 3 min. The number of squares entered by the whole body (locomotor activity) were counted. The movement of the mouse around the field was recorded with a video tracking device for 3 min (version NT4.0, Viewpoint).

Fmr1 KO2 mice [2] = tested on: Fmr1 KO2 mice
Excerpt: as §1, §2
The test was performed in individual cages. Normal bedding covered the floor to a depth of 0.5 cm. Each cage was supplied with a “Nestlet,” a 5 cm square of pressed cotton batting (Ancare). Mice were placed individually into the nesting cages 1 hr. before the dark phase, and the results were assessed the next morning. Nest building was scored on a 5 point scale.
Score 1: The Nestlet was largely untouched (>90% intact).
Score 2: The Nestlet was partially torn up (50-90% remaining intact).
Score 3: The Nestlet was mostly shredded but often there was no identifiable nest site: <50% of the Nestlet […]

Fmr1 KO2 mice [3] = tested on: Fmr1 KO2 mice; remark: listed apart in the source
Excerpt: as §1, §2
The dependent measure used in contextual fear conditioning was a freezing response following a pairing of an unconditioned stimulus (foot shock), with a conditioned stimulus, a particular context. Freezing is a species-specific response to fear, which has been defined as “absence of movement except for respiration”. This may last for seconds to minutes depending on the strength of the aversive stimulus, the number of presentations, and the degree of learning achieved by the subject. Testing involved placing the animal in a novel environment (dark chamber), providing an aversive stimulus (a 1-sec electric shock, 0.2 mA, to the paws), and then removing it.

Fmr1 KO2 mice [4] = test: Social interaction, three-chambered sociability task; format: in vivo
Protocol: In the three-chambered sociability task, a subject mouse was evaluated for its exploration of a novel social stimulus (novel mouse). The three-chambered social approach task monitors direct social approach behaviors when a subject mouse is presented with the choice of spending time with either a novel mouse or an empty cup. Sociability is defined as the subject mouse spending more time in the chamber containing the mouse than in the empty chamber. Preference for social novelty is defined as spending more time in the chamber with the novel mouse. The apparatus is a rectangular three-chamber box, where each chamber measures 20 cm (length)×40.5 cm (width)×22 cm (height). Dividing walls are made from clear perplex, with small openings (10 cm width×5 cm height) that allow access into each chamber. The three chamber task was lit from below (10 lux). The mice were allowed to freely explore the three-chamber apparatus over three 10 min trials. During the trial one wire cup was placed upside down in one of the side chambers and a novel mouse was placed under another wire cup in the other side chamber (novel mouse stimulus), leaving the middle chamber empty. The location of the novel mouse across trials was counterbalanced to minimize any potential confound due to a preference for chamber location. The time spent exploring the novel mice was scored as exploration ratio.

| SMILES | Open field: hyperactivity (Fmr1 KO2 mice [1]) | Nesting behavior (Fmr1 KO2 mice [2]) | Contextual fear conditioning (learning and memory) (Fmr1 KO2 mice [3]) | Sociability (exploration of novel mouse) (Fmr1 KO2 mice [4]) | Sociability (exploration of novel mouse) (Fmr1 KO2 mice [4]; listed as Sulindac) |
| --- | --- | --- | --- | --- | --- |
| COCCc1ccc(OCC(O)CNC(C)C)cc1.O=C(O)C(O)C(O)C(=O)O (racemic) [metoprolol, (±) 1-(Isopropylamino)-3-[p-(β-methoxyethyl)phenoxy]-2-propanol (+)-tartrate salt] | normalized Fmr1 KO2 mice hyperactivity; also recorded: normalize hyperactivity | partially rescued; also recorded: partially rescue nesting behavior and sociability | fails to improve the learning deficits | No significant difference was found in sociability; also recorded: partially rescue nesting behavior and sociability | – |
| O=c1c(O)c(-c2ccc(O)c(O)c2)oc2cc(O)cc(O)c12 [quercetin] | – | – | neither sulindac nor quercetin alone fully rescues fear conditioning | – | – |
| CN[C@H]1CC[C@@H](c2ccc(Cl)c(Cl)c2)c2ccccc21 [sertraline] | – | – | neither sulindac nor sertraline alone rescues sociability or fear conditioning | neither sulindac nor sertraline alone rescues sociability or fear conditioning | – |
| CC1=C(CC(=O)O)c2cc(F)ccc2/C1=C\c1ccc([S+](C)[O-])cc1 (stereo not drawn) [sulindac, (Z)-5-fluoro-2-methyl-1-[[p-(methylsulfinyl)phenyl]methylene]-1H-indene-3-acetic acid] | normalizes hyperactivity; also recorded: fully rescuing open field and nesting behavior | normalization in nesting behavior; also recorded: fully rescuing open field and nesting behavior | ameliorates the Fmr1 KO deficit in learning and memory; also recorded: partially rescuing contextual fear conditioning and sociability; also recorded: neither sulindac nor sertraline alone rescues sociability or fear conditioning; also recorded: neither sulindac nor quercetin alone fully rescues fear conditioning | partially rescuing contextual fear conditioning and sociability; also recorded: neither sulindac nor ibudilast alone rescues sociability; also recorded: neither sulindac nor sertraline alone rescues sociability or fear conditioning | partially improved such impairment |
